Assay results published in PMC10683025, “Discovery of a Hydroxylamine-Based Brain-Penetrant EGFR Inhibitor for Metastatic Non-Small-Cell Lung Cancer” (Journal of Medicinal Chemistry, 2023).
Like-named read-outs stand apart in the source and are kept apart here.

Tests used:
[1] = system: luciferase-tagged HCC827 cells implanted into the brains; assay: Intracranial PDX model; assay type: in vivo, BALB/c nude mice; settings: 10 mg/kg PO b.i.d.
Description: Animal experiments were performed at Pharmaron, Inc. and animal use was approved by Pharmaron’s Institutional Animal Care and Use Committee (IACUC) in Pharmaron (Pharmaron IACUC, Protocol #PK-M-07182022, #PK-R-06012022, and #ON-CELL-XEN-06012022) following the guidance of AAALAC. Six- to eight-week-old male Sprague-Dawley rats (approximately 200–300 g) obtained from Si Bei Fu Laboratory Animal Technology Co., six- to eight-week-old male CD1 mice (approximately 20–30 g) obtained from Si Bei Fu Laboratory Animal Technology Co., and six- to eight-week-old female BALB/c nude mice (approximately 20–30 g) obtained from Si Bei Fu Laboratory Animal Technology Co., were used in the pharmacokinetic studies. Six- to eight-week-old female BALB/c nude mice (approximately 18–22 g) obtained from Beijing Anikeeper Biotech Co., Ltd. were used in the intracranial PDX study. Animals were housed at 20–25 °C with humidity ranging from 40 to 70% relative humidity, were exposed to 12 h light and dark cycles, and were supplied with food and water ab libitum.
HCC827 cells stably expressing luciferase (HCC827-luc) were injected intracranially. Briefly, 3 × 10^5 HCC827-luc tumor cells suspended in 2 μL of RPMI1640 medium were injected into the right forebrain of anesthetized mice (anesthetic: intramuscular injection of ZoletlTM 50 (Virbac S.A)). Mice were imaged biweekly using IVIS Lumina III (PerkinElmer). Images were acquired 10 min post intraperitoneal (IP) injection with 15 mg/mL (at 5 μL/g body weight) of D-luciferin in anesthetized mice (anesthetic: 1–2% isoflurane inhalation). On day 20 postcellular inoculation, mice were randomized into 2 treatment groups (n = 10 mice per group): (1) 1% methylcellulose as vehicle control and (2) 9 (10 mg/kg) (formulation: 1% methylcellulose), PO, b.i.d. (twice daily) dosing (12 h intervals) × 7 days for 21 days. Body weights of all mice were measured biweekly throughout the study and BW change, expressed in % was calculated using the following formula: [drawing 5] where BWDay X is the BW on a given day and BWDay 0 is BW on day 0 (initiation of treatment).

[2] = Brain tissue binding by equilibrium dialysis; assay type: in vitro ADME, mouse
Description: Plasma protein binding and brain tissue binding were determined by Pharmaron, Inc. using the equilibrium dialysis method. […] Following incubation, the samples were analyzed by LC-MS/MS and the concentrations of the compounds were determined in the buffer and plasma solution chambers.

BRAF = biological target: T1, BRAF (Homo sapiens, UniProt P15056); assay: KINOMEScan; assay type: binding; settings: read-out: Percent Control
T1 construct: purchased Eurofins DiscoverX (KINOMEscan)
Description: Percent control was mapped onto the kinome tree using TREEspot.

[3] = CD-1, mouse, mouse brain homogenate

T1 sequence (P15056 whole entry): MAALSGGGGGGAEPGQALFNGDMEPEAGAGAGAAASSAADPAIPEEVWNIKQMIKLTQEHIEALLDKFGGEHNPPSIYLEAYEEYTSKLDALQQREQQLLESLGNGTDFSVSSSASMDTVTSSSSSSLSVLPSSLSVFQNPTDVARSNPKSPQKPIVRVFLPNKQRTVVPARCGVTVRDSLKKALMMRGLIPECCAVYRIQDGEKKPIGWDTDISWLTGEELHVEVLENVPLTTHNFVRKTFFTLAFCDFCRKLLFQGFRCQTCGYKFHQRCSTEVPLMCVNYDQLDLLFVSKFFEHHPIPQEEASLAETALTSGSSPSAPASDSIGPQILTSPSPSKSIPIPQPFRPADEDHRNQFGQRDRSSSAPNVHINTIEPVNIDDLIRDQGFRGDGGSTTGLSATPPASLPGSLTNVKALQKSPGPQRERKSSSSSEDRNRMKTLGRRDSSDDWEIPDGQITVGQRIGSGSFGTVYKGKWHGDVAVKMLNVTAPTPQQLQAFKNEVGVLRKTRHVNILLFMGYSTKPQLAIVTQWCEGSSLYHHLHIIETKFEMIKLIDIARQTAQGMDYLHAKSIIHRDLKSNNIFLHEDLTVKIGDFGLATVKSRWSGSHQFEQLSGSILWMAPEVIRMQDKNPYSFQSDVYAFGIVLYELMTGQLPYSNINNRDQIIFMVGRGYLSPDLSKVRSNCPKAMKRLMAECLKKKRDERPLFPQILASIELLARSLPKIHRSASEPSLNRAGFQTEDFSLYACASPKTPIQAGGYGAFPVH

**Q.** Which “mean body weight loss” value ([1]; 21-day treatment window) does the source give for `COc1cc2ncnc(Nc3cccc(Cl)c3F)c2cc1OCCON1CCN(C)CC1` [Compound 9, N-(3-Chloro-2-fluorophenyl)-7-methoxy-6-(2-((4-methylpiperazin-1-yl)oxy)ethoxy)quinazolin-4-amine] here?
**A.** ≤ 10%

**Q.** What about the adverse clinical events ([1]; 21 days) of the same molecule?
**A.** no adverse clinical events were observed

**Q.** What about the “intracranial tumor response relative to vehicle control (bioluminescence)” value ([1]; 21 days, P = 0.0059) of the same molecule?
**A.** profound tumor regression

**Q.** And the fraction unbound at 6 h, 5 μM ([2]; CD-1, mouse, brain homogenate, read-out: fu,brain% / %Unboundbrain)?
**A.** 0.0405

**Q.** And the recovery at 6 h, 5 μM [2, 3]?
**A.** 93%

**Q.** And the remaining at 6 h, 5 μM [2, 3]?
**A.** 92.6%

**Q.** What about the fraction unbound at 6 h, 5 μM ([2]; CD-1, mouse, mouse brain homogenate, read-out: %Unboundbrain (converted)) of the same molecule?
**A.** 0.0405

**Q.** What about the fraction unbound at 6 h, 5 µM ([2]; mouse, brain homogenate, read-out: fu,brain% / %Unboundbrain) of the same molecule?
**A.** 0.041

**Q.** What about the remaining binding at 1 µM (BRAF) of the same molecule?
**A.** 89%
